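The compound was tested at five concentrations on cells cultured in 96-well plates, with a 48-hour exposure period. GI50 is the concentration that inhibits growth by half.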 Activity calls are given as the source filed them. Cut-off read from the data, not from the text of the source: active = GI50 up to about 1.1 µM and inactive = higher.
Columns and labels:
Assay in all cases: inhibition of tumour cell growth, NCI panel, 48 h
SF-539 = test system: SF-539
SNB-19 = test system: SNB-19
OVCAR-3 = test system: OVCAR-3
M14 = test system: M14
OVCAR-5 = test system: OVCAR-5
A549 = test system: A549
COLO 205 = test system: COLO 205
DU-145 = test system: DU-145
BT-549 = test system: BT-549
RPMI-8226 = test system: RPMI-8226
MOLT-4 = test system: MOLT-4
MDA-MB-231 = test system: MDA-MB-231
SW-620 = test system: SW-620
MDA-MB-435 = test system: MDA-MB-435
HL-60 = test system: HL-60
A498 = test system: A498
MDA-N = test system: MDA-N
MCF7 = test system: MCF7
UACC-62 = test system: UACC-62
NCI-H23 = test system: NCI-H23
SK-OV-3 = test system: SK-OV-3
HCC 2998 = test system: HCC 2998
EKVX = test system: EKVX
NCI-H460 = test system: NCI-H460
SK-MEL-2 = test system: SK-MEL-2
SF-295 = test system: SF-295
SN12C = test system: SN12C
NCI-H522 = test system: NCI-H522
NCI-H226 = test system: NCI-H226
UACC-257 = test system: UACC-257
UO-31 = test system: UO-31
Hs-578T = test system: Hs-578T
Malme-3M = test system: Malme-3M
KM12 = test system: KM12
786-0 = test system: 786-0
SK-MEL-5 = test system: SK-MEL-5
HT-29 = test system: HT-29
LOX IMVI = test system: LOX IMVI
SK-MEL-28 = test system: SK-MEL-28
SF-268 = test system: SF-268
OVCAR-8 = test system: OVCAR-8
HOP-92 = test system: HOP-92
T47D = test system: T47D
SNB-75 = test system: SNB-75
U-251 = test system: U-251
CAKI-1 = test system: CAKI-1
TK-10 = test system: TK-10
HCT-116 = test system: HCT-116
OVCAR-4 = test system: OVCAR-4
CCRF-CEM = test system: CCRF-CEM
ACHN = test system: ACHN
HOP-62 = test system: HOP-62
NCI/ADR-RES = test system: NCI/ADR-RES
IGROV-1 = test system: IGROV-1
SR = test system: SR
RXF 393 = test system: RXF 393
HCT-15 = test system: HCT-15
K562 = test system: K562
PC-3 = test system: PC-3

O=C1C(Cl)=C(N2CCN(c3ccccn3)CC2)C(=O)c2ncccc21
GI50 (SF-539): 2.05 µM (inactive) | GI50 (SNB-19): 12.5 µM (inactive) | GI50 (OVCAR-3): 1.69 µM (inactive) | GI50 (M14): 1.6 µM (inactive) | GI50 (OVCAR-5): 7.87 µM (inactive) | GI50 (A549): 6.56 µM (inactive) | GI50 (COLO 205): 1.84 µM (inactive) | GI50 (DU-145): 11.8 µM (inactive) | GI50 (BT-549): 1.79 µM (inactive) | GI50 (RPMI-8226): 2 µM (inactive) | GI50 (MOLT-4): 1.38 µM (inactive) | GI50 (MDA-MB-231): 1.69 µM (inactive) | GI50 (SW-620): 2.03 µM (inactive) | GI50 (MDA-MB-435): 1.69 µM (inactive) | GI50 (HL-60): 0.668 µM (active) | GI50 (A498): 11.3 µM (inactive) | GI50 (MDA-N): 1.76 µM (inactive) | GI50 (MCF7): 1.67 µM (inactive) | GI50 (UACC-62): 2.45 µM (inactive) | GI50 (NCI-H23): 1.89 µM (inactive) | GI50 (SK-OV-3): 7 µM (inactive) | GI50 (HCC 2998): 16.7 µM (inactive) | GI50 (EKVX): 11.9 µM (inactive) | GI50 (NCI-H460): 3.05 µM (inactive) | GI50 (SK-MEL-2): 1.87 µM (inactive) | GI50 (SF-295): 5.69 µM (inactive) | GI50 (SN12C): 2.61 µM (inactive) | GI50 (NCI-H522): 1.67 µM (inactive) | GI50 (NCI-H226): 5.68 µM (inactive) | GI50 (UACC-257): 1.7 µM (inactive) | GI50 (UO-31): 1.77 µM (inactive) | GI50 (Hs-578T): 2.49 µM (inactive) | GI50 (Malme-3M): 1.75 µM (inactive) | GI50 (KM12): 3.53 µM (inactive) | GI50 (786-0): 1.63 µM (inactive) | GI50 (SK-MEL-5): 2 µM (inactive) | GI50 (HT-29): 3.13 µM (inactive) | GI50 (LOX IMVI): 1.61 µM (inactive) | GI50 (SK-MEL-28): 2.24 µM (inactive) | GI50 (SF-268): 2.74 µM (inactive) | GI50 (OVCAR-8): 1.32 µM (inactive) | GI50 (HOP-92): 1.88 µM (inactive) | GI50 (T47D): 1.81 µM (inactive) | GI50 (SNB-75): 6.21 µM (inactive) | GI50 (U-251): 4.38 µM (inactive) | GI50 (CAKI-1): 2.13 µM (inactive) | GI50 (TK-10): 3.97 µM (inactive) | GI50 (HCT-116): 1.74 µM (inactive) | GI50 (OVCAR-4): 1.87 µM (inactive) | GI50 (CCRF-CEM): 0.745 µM (active) | GI50 (ACHN): 2.33 µM (inactive) | GI50 (HOP-62): 11.9 µM (inactive) | GI50 (NCI/ADR-RES): 2.33 µM (inactive) | GI50 (IGROV-1): 2.64 µM (inactive) | GI50 (SR): 0.757 µM (active) | GI50 (RXF 393): 2.17 µM (inactive) | GI50 (HCT-15): 1.66 µM | GI50 (K562): 1.33 µM (inactive) | GI50 (PC-3): 2.8 µM (inactive)

CN(C)c1ccc(/C=C/C(=O)c2cc(C(C)(C)C)c(O)c(C(C)(C)C)c2)cc1
GI50 (SF-539): 0.625 µM (active) | GI50 (SNB-19): 3.73 µM (inactive) | GI50 (OVCAR-3): 0.443 µM (active) | GI50 (M14): 1.15 µM (inactive) | GI50 (OVCAR-5): 2.99 µM (inactive) | GI50 (A549): 2.32 µM (inactive) | GI50 (COLO 205): 0.348 µM (active) | GI50 (DU-145): 2 µM (inactive) | GI50 (BT-549): 3.64 µM (inactive) | GI50 (RPMI-8226): 1.55 µM (inactive) | GI50 (MOLT-4): 3.85 µM (inactive) | GI50 (MDA-MB-231): 2.44 µM (inactive) | GI50 (SW-620): 0.986 µM (active) | GI50 (MDA-MB-435): 0.258 µM (active) | GI50 (HL-60): 2.29 µM (inactive) | GI50 (A498): 1.91 µM (inactive) | GI50 (MDA-N): 0.249 µM (active) | GI50 (MCF7): 0.469 µM (active) | GI50 (UACC-62): 0.637 µM (active) | GI50 (NCI-H23): 2.07 µM (inactive) | GI50 (SK-OV-3): 1.74 µM (inactive) | GI50 (HCC 2998): 1.64 µM (inactive) | GI50 (EKVX): 0.583 µM (active) | GI50 (NCI-H460): 0.82 µM (active) | GI50 (SK-MEL-2): 1.08 µM (active) | GI50 (SF-295): 0.43 µM (active) | GI50 (SN12C): 3.13 µM (inactive) | GI50 (NCI-H522): 0.482 µM (active) | GI50 (NCI-H226): 1.85 µM (inactive) | GI50 (UACC-257): 0.321 µM (active) | GI50 (UO-31): 1.61 µM (inactive) | GI50 (Hs-578T): 2.72 µM (inactive) | GI50 (Malme-3M): > 100 µM (inactive) | GI50 (KM12): 0.641 µM (active) | GI50 (786-0): 1.3 µM (inactive) | GI50 (SK-MEL-5): 0.774 µM (active) | GI50 (HT-29): 1.03 µM (active) | GI50 (LOX IMVI): 2.06 µM (inactive) | GI50 (SK-MEL-28): > 60 µM (inactive) | GI50 (SF-268): 2.66 µM (inactive) | GI50 (OVCAR-8): 2.93 µM (inactive) | GI50 (HOP-92): > 100 µM (inactive) | GI50 (T47D): 4.06 µM (inactive) | GI50 (SNB-75): 0.579 µM (active) | GI50 (U-251): 0.946 µM (active) | GI50 (CAKI-1): 1.14 µM (inactive) | GI50 (TK-10): 1.23 µM (inactive) | GI50 (HCT-116): 1.05 µM (active) | GI50 (OVCAR-4): 1.98 µM (inactive) | GI50 (CCRF-CEM): 1.01 µM (active) | GI50 (ACHN): 1.73 µM (inactive) | GI50 (HOP-62): 2.54 µM (inactive) | GI50 (NCI/ADR-RES): 0.796 µM (active) | GI50 (IGROV-1): 4.15 µM (inactive) | GI50 (SR): 0.546 µM (active) | GI50 (RXF 393): 0.204 µM (active) | GI50 (HCT-15): 1.15 µM | GI50 (K562): 0.979 µM (active) | GI50 (PC-3): 1.22 µM (inactive)

c1ccc(-c2nnc(SCc3c[nH]c4ccccc34)n2-c2ccccc2)cc1
GI50 (SF-539): 18.9 µM (inactive) | GI50 (SNB-19): 42.1 µM (inactive) | GI50 (OVCAR-3): 40.8 µM (inactive) | GI50 (M14): 78.9 µM (inactive) | GI50 (OVCAR-5): > 100 µM (inactive) | GI50 (A549): 34.4 µM (inactive) | GI50 (COLO 205): > 100 µM (inactive) | GI50 (DU-145): 40.3 µM (inactive) | GI50 (BT-549): 17.3 µM (inactive) | GI50 (RPMI-8226): > 100 µM (inactive) | GI50 (MOLT-4): 8.11 µM (inactive) | GI50 (MDA-MB-231): 29.4 µM (inactive) | GI50 (SW-620): 85.1 µM (inactive) | GI50 (MDA-MB-435): 34.6 µM (inactive) | GI50 (HL-60): > 100 µM (inactive) | GI50 (A498): 19.3 µM (inactive) | GI50 (MDA-N): 78 µM (inactive) | GI50 (MCF7): 42.3 µM (inactive) | GI50 (UACC-62): 21.5 µM (inactive) | GI50 (NCI-H23): 41.4 µM (inactive) | GI50 (SK-OV-3): 32.4 µM (inactive) | GI50 (HCC 2998): 27.4 µM (inactive) | GI50 (EKVX): 21.8 µM (inactive) | GI50 (NCI-H460): 12.1 µM (inactive) | GI50 (SK-MEL-2): 29.2 µM (inactive) | GI50 (SF-295): 19.6 µM (inactive) | GI50 (SN12C): 68.4 µM (inactive) | GI50 (NCI-H522): 25.9 µM (inactive) | GI50 (NCI-H226): 22.7 µM (inactive) | GI50 (UACC-257): 23.8 µM (inactive) | GI50 (UO-31): > 100 µM (inactive) | GI50 (Hs-578T): 17.4 µM (inactive) | GI50 (Malme-3M): > 100 µM (inactive) | GI50 (KM12): 65.3 µM (inactive) | GI50 (786-0): 31.8 µM (inactive) | GI50 (SK-MEL-5): 15 µM (inactive) | GI50 (HT-29): 8 µM (inactive) | GI50 (LOX IMVI): 34.9 µM (inactive) | GI50 (SK-MEL-28): 75.3 µM (inactive) | GI50 (SF-268): 38.2 µM (inactive) | GI50 (OVCAR-8): 30.7 µM (inactive) | GI50 (HOP-92): 3.55 µM (inactive) | GI50 (T47D): 20 µM (inactive) | GI50 (SNB-75): 18.7 µM (inactive) | GI50 (U-251): 24.2 µM (inactive) | GI50 (CAKI-1): 33.1 µM (inactive) | GI50 (TK-10): 22.2 µM (inactive) | GI50 (HCT-116): 35.6 µM (inactive) | GI50 (OVCAR-4): 29.5 µM (inactive) | GI50 (CCRF-CEM): 25.9 µM (inactive) | GI50 (ACHN): 26.6 µM (inactive) | GI50 (HOP-62): 19 µM (inactive) | GI50 (NCI/ADR-RES): 22.6 µM (inactive) | GI50 (IGROV-1): 27.2 µM (inactive) | GI50 (SR): 11.7 µM (inactive) | GI50 (RXF 393): 16.6 µM (inactive) | GI50 (HCT-15): 45 µM | GI50 (K562): 47.5 µM (inactive) | GI50 (PC-3): 21.4 µM (inactive)
